The record followed here is US4240964A, “2-(O-Hydroxyphenyl)-pyrrole and process for its preparation” (BASF Aktiengesellschaft, priority 1978, dated 1980).

A short description of data set [1]: in vivo. The note with it: mouse, ip.
In data set [2] the test system is isoproterenol-induced tachycardia (β1). Kind of data set: β1-sympatholytic action: inhibition of isoproterenol-induced tachycardia in pithed rats. The format is in vivo, rats (Sprague-Dawley, Rattus norvegicus). The note with it: for ED50: Rattus norvegicus, 5 min, isoproterenol 0.1 ug/kg i.v. before and 5 minutes after test substance, read-out: β1-sympatholytic action ED 50% (dose which inhibits the isoproterenol-induced tachycardia by 50%); for β1-sympatholytic activity, times greater than propranolol: comparison with propranolol. Here is the method: The β-sympatholytic action was tested on rats, in comparison with the known β-sympatholytic agent propranolol (1-isopropylamino)-1-naphthyloxy-2-propanol.HC1).
^1 Inhibition of isoproterenolinduced tachycardia in pithed rats.
Intravenous administration
^2 Dose which inhibits the isoproterenolinduced tachycardia by 50%

For data set [3] the following is noted: for Therapeutic range, absolute (LD 50 / ED 50%): LD 50 i.p. mice, ED 50% i.v. rats; for Therapeutic range (LD 50 / ED 50%), times greater than propranolol: comparison with propranolol; for Therapeutic range, relative (Propranolol = 1.00): relative to propranolol. As for the experimental part:
Isoproternol was administered before, and 5 minutes after, the intravenous administration of the test substances.

The structures appear in SMILES notation. Structures can show the parent of a compound that is named as a salt.

For orientation: LD50 means the dose at which mortality reaches 50%. Lower therefore signals a more toxic substance. In data set [1], `CC(C)(C)NCC(O)COc1ccccc1-c1ccc[nH]1.O=C(O)/C=C/C(=O)O` (stereo not shown) [Example II, 2-[2-(3-tert.-butylamino-2-hydroxypropoxy)-phenyl]-pyrrole fumarate] yielded a 50% lethal dose (LD50) at 24 h of 165 mg/kg. Also, in data set [2] (intravenous, pithed rats), the ED50 came to 0.00227 mg/kg. Further, the “β1-sympatholytic activity, times greater than propranolol” value in data set [2] was determined as 5.6 times. For the same compound, in data set [3], the “Therapeutic range, absolute (LD 50 / ED 50%)” value stood at 767; the “Therapeutic range (LD 50 / ED 50%), times greater than propranolol” value came to 7 times; the “Therapeutic range, relative (Propranolol = 1.00)” value came to 6.91.

`CC(C)NCC(O)COc1cccc2ccccc12` (stereo not shown) [Propranolol, reference compound]: the “R.A. (relative activity, Propranolol = 1.00), β1-sympatholytic action” value in data set [2] (intravenous, pithed rats, relative to propranolol) turned out to be 1.00.

In data set [1], `CC(C)NCC(O)COc1ccccc1-c1ccc[nH]1` (stereo not shown) [Example III, 2-[2-(3-isopropylamino-2-hydroxypropoxy)-phenyl]-pyrrole fumarate hemihydrate] returned an LD50 at 24 h of 97.2 mg/kg. For the same compound, in data set [2] (intravenous, pithed rats), the ED50 is 0.004 mg/kg. The “β1-sympatholytic activity, times greater than propranolol” value in data set [2] is given as 3.2 times. Besides, in data set [3], the “Therapeutic range, absolute (LD 50 / ED 50%)” value is listed as 452; the “Therapeutic range (LD 50 / ED 50%), times greater than propranolol” value stood at 4 times; the “Therapeutic range, relative (Propranolol = 1.00)” value is reported as 4.07.
